This is an account of results in patent US8012983B2, “Substituted triazolopyrazines useful for the treatment of degenerative and inflammatory diseases” (Galapagos NV, priority 2008, dated 2011).

The experiment has as its system MMP13 expression in SW1353 chondrosarcoma cell line. The experiment can be described thus: MMP13 assay: IL-1/OSM-driven MMP13 expression in SW1353 cells (MMP13 ELISA). It counts as cell-based. Conditions: Homo sapiens, IL-1β and OSM, 48 hr. How it is done: The protocol of the MMP13 ELISA is described in section 4.1, then testing of compounds on release of IL-1/OSM-driven MMP13 expression in SW1353 chondrosarcoma cell line is described in section 4.2.
A 384 well format ELISA for measurement of MMP13 was developed. Various primary antibodies were tested, as well as various ELISA protocols. The following protocol is developed and validated to measure MMP13 levels in supernatant of cell cultures in 384 well plates.
Black maxisorb 384 well plates (Nunc 460518) are coated with 35 μl of a buffered solution containing 1.5 μg/mL anti-MMP13 antibody MAB511 (R&D systems). The antibody is diluted in carbonate-bicarbonate coating buffer (1.59 g Na2CO3 (Sigma S-7795) and 2.93 g NaHCO3 (Sigma S-5761) in 1 L MilliQ water, adjusted to pH 9.6). After overnight incubation at 4° C., wells are washed twice with 100 μL PBST (80 g NaCl, 2 g KCl (Sigma), 11.5 g Na2HPO4.7H2O and 2 g KH2PO4 in 10 L milliQ water; pH 7.4+0.05% Tween-20 (Sigma)) and blocked with 100 μL/well blocking buffer (5% non fat dry milk in PBS). After overnight incubation at 4° C., wells are washed twice with 100 μL PBST. The PBST is removed and 35 μL of sample is transferred to the ELISA plates. After 4 hr incubation at RT, plates are washed twice with PBST and incubated for 1 hr at 37° C. with 35 μL/well 1.5 mM APMA solution (a 10 mM APMA stock solution is prepared one day before (35.18 mg APMA (Sigma A-9563) in 10 mL 0.1M NaOH (Merck 1.06469.1000) and stored at 4° C. Before use, the 10 mM APMA stock solution is diluted to 1.5 mM in 1×APMA buffer (10× APMA buffer: 500 mM Tris (Roche 708976), 50 mM CaCl2 (Sigma C-5080), […] ZnCl2 (Sigma Z-0173), 1.5 M NaCl (Calbiochem 567441), 0.5% Brij35 (Sigma 430 AG-6) and adjust to pH 7.0). After activation of MMP13 by APMA, plates are washed again two times with 100 μL PBST/well and 35 μL of substrate solution is added to each well. Substrate solution is prepared as follows: OmniMMP Fluorescent substrate (Biomol P-126) stock solution (2 mM in DMSO, stored at −20° C.) is diluted in 1× OmniMMP buffer (10× OmniMMP buffer: 500 mM Hepes (Sigma H4034), 100 mM CaCl2 (Sigma C5080), 0.5% Brij35 (Sigma 430 AG-6; adjusted to pH 7.0) to a final concentration of 0.01 mM. After an overnight incubation at 37° C., the active MMP13 in the sample has cleaved the substrate and released fluorescence. Readout is performed on the EnVision (Perkin Elmer) using 320 nm excitation/405 nm emission filters.
Human chondrosarcoma cell line SW1353 was acquired from ATCC and grown in DMEM supplemented with 10% heat-inactivated FBS and 1× penicillin/streptomycin (Invitrogen) in a humidified 5% CO2 incubator at 37° C. Aliquots of the cells were frozen and cryopreserved in liquid nitrogen. Starting from a cryopreserved aliquot, cells are further grown by sub-culturing at a 1/5-1/8 ratio twice a week by trypsinisation.
Starting from the compound master stocks (all at 10 mM concentration in 100% DMSO) a 3-fold serial dilution is made in 96-well plates in 100% DMSO. Then, plates are futher diluted 50-fold in M199 medium supplemented with 1% heat-inactivated FBS to obtain an intermediate work stock.
At day 1, SW1353 cells are seeded in 96-well plates (flat bottom, tissue culture treated, Greiner) at a density of 15000 cells/well in 120 μL growth medium. The next day, 15 μL compound out of the intermediate work stock is added. After an incubation period of 60 minutes, which allows the compounds to equilibrate and enter the cells, cells are stimulated with a mixture of IL-1β and OSM, added in a volume of 15 μL to obtain final concentrations of 1 ng/ml IL-1β and 25 ng/ml OSM. For that, stocks of IL-1 (10 μg/ml) and OSM (25 μg/ml) (both PeproTech) were diluted to 10 ng/ml and 250 ng/ml respectively, in M199 medium supplemented with 1% FBS. After incubation for 48 hr, the cell supernatant was harvested and an appropriate dilution was processed in the MMP13 ELISA as described above, delivering raw data (RFU: relative fluorescence units). […]
For orientation: In an ELISA, binding on a coated surface is turned into a signal by an enzyme label.

Molecules are shown by their SMILES. Some results are limits rather than exact numbers.

As for `CC(C)N1C[C@@H]2C[C@H]1CN2c1cccc(Nc2ncc(-c3ccc4c(c3)CNC4=O)n3ncnc23)c1` [Compound 26, 5-(8-(3-((1S,4S)-5-isopropyl-2,5-diazabicyclo[2.2.1]heptan-2-yl)phenylamino)-[1,2,4]triazolo[1,5-a]pyrazin-5-yl)isoindolin-1-one], the 50% inhibitory concentration (IC50) – broadly, the concentration needed to halve the response being measured – is greater than 1000 nM.
Then `CC(C)N1C[C@@H]2C[C@H]1CN2c1ccc(Nc2ncc(-c3coc(C(N)=O)c3)n3ncnc23)cc1` [Compound 2, 4-{8-[4-((1S,4S)-5-Isopropyl-2,5-diaza-bicyclo[2.2.1]hept-2-yl)-phenylamino]-[1,2,4]triazolo[1,5-a]pyrazin-5-yl}-furan-2-carboxamide], with 1 to 500 nM.
